Where two headings read alike, the source gives them in different places.
System: Leishmania major promastigotes
Experiment: Anti-leishmanial assay (promastigote culture, 72 h, microscopic counting)
Format: cell-based
[1] = Leishmania major, 72 h, 72 h at 21-22° C., assays repeated thrice, read-out: Leishmanicidal Activity (IC50 in μM)
[2] = 72 h at 21-22° C., assays repeated thrice, read-out: Leishmanicidal Activity (IC50 in μM)

SMILES | IC50 [1] [µM] | IC50 [2] [µM] | other results
C[C@@H]1[C@H](O)[C@@H](C)/C=C/C=C/C=C/C=C/C=C/C=C/C=C/[C@H](O[C@@H]2O[C@H](C)[C@@H](O)[C@H](N)[C@@H]2O)C[C@@H]2O[C@](O)(C[C@@H](O)C[C@@H](O)[C@H](O)CC[C@@H](O)C[C@@H](O)CC(=O)O[C@H]1C)C[C@H](O)[C@H]2C(=O)O [Amphotericin B, reference compound] | 0.29 ± 0.05 | – | –
C[C@]12CC[C@H]3[C@@H](CCC4=CC(=O)CC[C@@H]43)[C@@H]1CC[C@@H]2O [Compound 1, 17β-Hydroxy-19-nor-4-androsten-3-one, reference compound] | 29.6 to 80.2 | – | IC50 (read-out: Leishmanicidal Activity (IC50 in μM), 72 h at 21-22° C., assays repeated thrice, listed as Nandrolone (1)): 32 µM
C[C@]12[C@H](O)C[C@H]3[C@@H](CCC4=CC(=O)CC[C@@]43O)[C@@H]1CC[C@@H]2O [Compound 2, 10β,12β,17β-Trihydroxy-19-nor-4-androsten-3-one] | – | > 100 | –
C[C@]12CC[C@H]3[C@@H](CCC4=CC(=O)CC[C@@]43O)[C@@H]1C[C@@H](O)[C@@H]2O [Compound 3, 10β,16α,17β-Trihydroxy-19-nor-4-androsten-3-one] | – | 77.4 | –
C[C@]12CC[C@H]3[C@@H](C[C@@H](O)C4=CC(=O)CC[C@@]43O)[C@@H]1CC[C@@H]2O [Compound 4, 6β,10β,17β-Trihydroxy-19-nor-4-androsten-3-one] | – | 70.9 | –
C[C@]12CC[C@H]3[C@@H](CCC4=CC(=O)CC[C@@]43O)[C@@H]1CC[C@@H]2O [Compound 5, 10β,17β-Dihydroxy-19-nor-4-androsten-3-one] | – | 54.9 | –
C[C@]12CC[C@H]3[C@@H](C[C@@H](O)C4=CC(=O)CC[C@@H]43)[C@@H]1CC[C@@H]2O [Compound 6, 6β,17β-Dihydroxy-19-nor-4-androsten-3-one] | – | 80.2 | –
C[C@]12CC[C@H]3[C@@H](CCC4=CC(=O)CC[C@@]43O)[C@@H]1CCC2=O [Compound 7, 10β-Hydroxy-19-nor-4-androsten-3,17-dione] | – | 61.1 | –
C[C@]12CC[C@H]3[C@@H](CCC4=CC(=O)CC[C@@H]43)[C@@H]1C[C@H](O)[C@@H]2O [Compound 8, 16β,17β-Dihydroxy-19-nor-4-androsten-3-one] | – | 29.6 | –
N=C(N)c1ccc(OCCCCCOc2ccc(C(=N)N)cc2)cc1 [Pentamidine, reference compound] | 5.09 ± 0.09 | – | IC50 (Leishmania major, 72 h, 72 h at 21-22° C., read-out: IC50 against leishmaniasis (unit printed as M)): 5.09 µM

Source: patent US9173888B1, “Treatment and inhibition of protozoal diseases with nandrolone and its derivatives” (priority 2014, dated 2015)
